These compounds were tested against T1, human MC5R (Homo sapiens, UniProt P33032) (assay: Human MC5R radioligand binding assay ([125I] NDP-MSH displacement, hMC5R membranes)). Conditions: hMC5R assay as in Example 102; compounds tested as trifluoroacetate or hydrochloride salts, or as free base.
T1 construct: purchased Perkin Elmer RBXMC5M400UA
Method: After incubation for 10 mins the phosphate buffer containing the iodine was added to NDP-MSH (10 ul at 1 mg/mL) in a separate eppendorf tube. This was incubated for a further 10 mins.
Resuspended membranes were kept on ice until they were added to the wells of the plate.
Assays were performed in 96 well polypropylene plates. […] This was incubated for 1 hr at 37 °C. Non-specific binding was determined with […] NDP-MSH. Plates were filtered using a Tomtec cell harvester with GF/A filters (Wallac) (presoaked in 0.6% polyethylenimine) and washed three times with 1.0 mL ice-cold wash buffer (the above incubation buffer without 1,10-phenanthroline and Complete™ protease inhibitor tablet). The filters were dried in a 37 °C oven, placed in a sample bag and 5 mL Betaplatescint (Wallac) was added. Prepared filters were counted in cassettes in a Microbeta Trilux (Wallac) for 1 min. […] Data analysis was performed using GraphPad Prism 4, employing competition binding with a single site model and a fixed Hill coefficient. The following equation was used: Y = Bottom + (Top-Bottom)/1/10^(X-logEC50), where X = log(concentration) and Y = binding to fit the data.

T1 sequence (P33032 whole entry): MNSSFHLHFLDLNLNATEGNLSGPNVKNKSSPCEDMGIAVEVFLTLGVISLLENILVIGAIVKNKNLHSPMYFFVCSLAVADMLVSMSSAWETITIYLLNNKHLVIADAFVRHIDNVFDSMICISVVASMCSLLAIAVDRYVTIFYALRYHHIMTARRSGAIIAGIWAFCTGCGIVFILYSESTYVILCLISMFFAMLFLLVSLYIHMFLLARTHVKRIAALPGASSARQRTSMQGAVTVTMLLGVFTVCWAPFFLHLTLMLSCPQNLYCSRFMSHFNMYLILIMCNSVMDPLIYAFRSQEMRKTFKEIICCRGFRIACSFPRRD

N=C(N)NCCC[C@@H]1N[C@H](CNC(=O)/C=C/c2cccs2)CCN(CC(c2ccccc2)c2ccccc2)C1=O [Compound 167, (E)-N-(((3S,5S)-1-(2,2-diphenylethyl)-3-(3-guanidinopropyl)-2-oxo-1,4-diazepan-5-yl)methyl)-3-(thiophen-2-yl)acrylamide] and N=C(N)NCCC[C@@H]1N[C@H](CNC(=O)/C=C/c2cccc(F)c2)CCN(CC(c2ccccc2)c2ccccc2)C1=O [Compound 173, (E)-N-(((3S,5S)-1-(2,2-diphenylethyl)-3-(3-guanidinopropyl)-2-oxo-1,4-diazepan-5-yl)methyl)-3-(3-fluorophenyl)acrylamide] cannot be ordered by IC50: under 100 nM for the first, under 100 nM for the second.

N=C(N)NCCC[C@@H]1N[C@H](CNC(=O)[C@H]2COc3ccccc3O2)CCN(CC(c2ccccc2)c2ccccc2)C1=O [Compound 168, (R)-N-(((3S,5S)-1-(2,2-diphenylethyl)-3-(3-guanidinopropyl)-2-oxo-1,4-diazepan-5-yl)methyl)-2,3-dihydrobenzo[b][1,4]dioxine-2-carboxamide] and N=C(N)NCCC[C@@H]1N[C@H](CNC(=O)/C=C/c2ccccc2Cl)CCN(CC(c2ccccc2)c2ccccc2)C1=O [Compound 189, (E)-3-(2-chlorophenyl)-N-(((3S,5S)-1-(2,2-diphenylethyl)-3-(3-guanidinopropyl)-2-oxo-1,4-diazepan-5-yl)methyl)acrylamide] cannot be ordered by IC50: under 1000 nM for the first, under 1000 nM for the second.

N=C(N)NCCC[C@@H]1N[C@H](CNC(=O)/C=C/c2ccc(O)cc2)CCN(CC(c2ccccc2)c2ccccc2)C1=O [Compound 169, (E)-N-(((3S,5S)-1-(2,2-diphenylethyl)-3-(3-guanidinopropyl)-2-oxo-1,4-diazepan-5-yl)methyl)-3-(4-hydroxyphenyl)acrylamide] and Cc1ccc(/C=C/C(=O)NC[C@@H]2CCN(CC(c3ccccc3)c3ccccc3)C(=O)[C@H](CCCNC(=N)N)N2)cc1 [Compound 171, (E)-N-(((3S,5S)-1-(2,2-diphenylethyl)-3-(3-guanidinopropyl)-2-oxo-1,4-diazepan-5-yl)methyl)-3-p-tolylacrylamide] cannot be ordered by IC50: under 1000 nM for the first, under 100 nM for the second.

N=C(N)NCCC[C@@H]1N[C@H](CNC(=O)/C=C/c2ccccc2C(F)(F)F)CCN(CC(c2ccccc2)c2ccccc2)C1=O [Compound 172, (E)-N-(((3S,5S)-1-(2,2-diphenylethyl)-3-(3-guanidinopropyl)-2-oxo-1,4-diazepan-5-yl)methyl)-3-(2-(trifluoromethyl)phenyl)acrylamide] and N=C(N)NCCC[C@@H]1N[C@H](CNC(=O)/C=C/c2cccc(C(F)(F)F)c2)CCN(CC(c2ccccc2)c2ccccc2)C1=O [Compound 192, (E)-N-(((3S,5S)-1-(2,2-diphenylethyl)-3-(3-guanidinopropyl)-2-oxo-1,4-diazepan-5-yl)methyl)-3-(3-(trifluoromethyl)phenyl)acrylamide] cannot be ordered by IC50: under 1000 nM for the first, under 1000 nM for the second.

N=C(N)NCCC[C@@H]1N[C@H](CNC(=O)COc2ccc(Cl)cc2Cl)CCN(CC(c2ccccc2)c2ccccc2)C1=O [Compound 176, 2-(2,4-dichlorophenoxy)-N-(((3S,5S)-1-(2,2-diphenylethyl)-3-(3-guanidinopropyl)-2-oxo-1,4-diazepan-5-yl)methyl)acetamide] and N=C(N)NCCC[C@@H]1N[C@H](CNC(=O)/C=C/c2cccc(Cl)c2)CCN(CC(c2ccccc2)c2ccccc2)C1=O [Compound 177, (E)-3-(3-chlorophenyl)-N-(((3S,5S)-1-(2,2-diphenylethyl)-3-(3-guanidinopropyl)-2-oxo-1,4-diazepan-5-yl)methyl)acrylamide] cannot be ordered by IC50: under 100 nM for the first, under 100 nM for the second.

N=C(N)NCCC[C@@H]1N[C@H](CNC(=O)c2ccc3ncsc3c2)CCN(CC(c2ccccc2)c2ccccc2)C1=O [Compound 178, N-(((3S,5S)-1-(2,2-diphenylethyl)-3-(3-guanidinopropyl)-2-oxo-1,4-diazepan-5-yl)methyl)benzo[d]thiazole-6-carboxamide] and N=C(N)NCCC[C@@H]1N[C@H](CNC(=O)c2ccc3sccc3c2)CCN(CC(c2ccccc2)c2ccccc2)C1=O [Compound 185, N-(((3S,5S)-1-(2,2-diphenylethyl)-3-(3-guanidinopropyl)-2-oxo-1,4-diazepan-5-yl)methyl)benzo[b]thiophene-5-carboxamide] cannot be ordered by IC50: under 1000 nM for the first, under 100 nM for the second.

N=C(N)NCCC[C@@H]1N[C@H](CNC(=O)c2ccc(-c3ccccc3)o2)CCN(CC(c2ccccc2)c2ccccc2)C1=O [Compound 179, N-(((3S,5S)-1-(2,2-diphenylethyl)-3-(3-guanidinopropyl)-2-oxo-1,4-diazepan-5-yl)methyl)-5-phenylfuran-2-carboxamide] and Cc1c(C(=O)NC[C@@H]2CCN(CC(c3ccccc3)c3ccccc3)C(=O)[C@H](CCCNC(=N)N)N2)cnn1-c1ccccc1 [Compound 186, N-(((3S,5S)-1-(2,2-diphenylethyl)-3-(3-guanidinopropyl)-2-oxo-1,4-diazepan-5-yl)methyl)-5-methyl-1-phenyl-1H-pyrazole-4-carboxamide] cannot be ordered by IC50: under 1000 nM for the first, under 100 nM for the second.

COc1cccc(/C=C/C(=O)NC[C@@H]2CCN(CC(c3ccccc3)c3ccccc3)C(=O)[C@H](CCCNC(=N)N)N2)c1 [Compound 180, (E)-N-(((3S,5S)-1-(2,2-diphenylethyl)-3-(3-guanidinopropyl)-2-oxo-1,4-diazepan-5-yl)methyl)-3-(3-methoxyphenyl)acrylamide] and Cc1cccc(/C=C/C(=O)NC[C@@H]2CCN(CC(c3ccccc3)c3ccccc3)C(=O)[C@H](CCCNC(=N)N)N2)c1 [Compound 191, (E)-N-(((3S,5S)-1-(2,2-diphenylethyl)-3-(3-guanidinopropyl)-2-oxo-1,4-diazepan-5-yl)methyl)-3-m-tolylacrylamide] cannot be ordered by IC50: under 1000 nM for the first, under 100 nM for the second.

N=C(N)NCCC[C@@H]1N[C@H](CNC(=O)c2ccc3cc(Br)ccc3c2)CCN(CC(c2ccccc2)c2ccccc2)C1=O [Compound 181, 6-bromo-N-(((3S,5S)-1-(2,2-diphenylethyl)-3-(3-guanidinopropyl)-2-oxo-1,4-diazepan-5-yl)methyl)-2-naphthamide] and N=C(N)NCCC[C@@H]1N[C@H](CNC(=O)c2ccc3cc(F)ccc3c2)CCN(CC(c2ccccc2)c2ccccc2)C1=O [Compound 188, N-(((3S,5S)-1-(2,2-diphenylethyl)-3-(3-guanidinopropyl)-2-oxo-1,4-diazepan-5-yl)methyl)-6-fluoro-2-naphthamide] cannot be ordered by IC50: under 10 nM for the first, under 100 nM for the second.

N=C(N)NCCC[C@@H]1N[C@H](CNC(=O)c2ccc3ccccc3c2)CCN(CCc2ccccc2)C1=O [Compound 182, N-(((3S,5S)-3-(3-guanidinopropyl)-2-oxo-1-phenethyl-1,4-diazepan-5-yl)methyl)-2-naphthamide] and N=C(N)NCCC[C@@H]1N[C@H](CNC(=O)/C=C/c2cccc(O)c2)CCN(CC(c2ccccc2)c2ccccc2)C1=O [Compound 193, (E)-N-(((3S,5S)-1-(2,2-diphenylethyl)-3-(3-guanidinopropyl)-2-oxo-1,4-diazepan-5-yl)methyl)-3-(3-hydroxyphenyl)acrylamide] cannot be ordered by IC50: under 1000 nM for the first, under 1000 nM for the second.

COc1ccc(/C=C/C(=O)NC[C@@H]2CCN(CC(c3ccccc3)c3ccccc3)C(=O)[C@H](CCCNC(=N)N)N2)cc1 [Compound 187, (E)-N-(((3S,5S)-1-(2,2-diphenylethyl)-3-(3-guanidinopropyl)-2-oxo-1,4-diazepan-5-yl)methyl)-3-(4-methoxyphenyl)acrylamide] showed an IC50 of under 100 nM.
